Experimental data taken from ChEMBL document CHEMBL1799925, “Inhibition of sphingosine 1-phosphate lyase for the treatment of rheumatoid arthritis: discovery of (E)-1-(4-((1R,2S,3R)-1,2,3,4-tetrahydroxybutyl)-1H-imidazol-2-yl)ethanone oxime (LX2931) and (1R,2S,3R)-1-(2-(isoxazol-3-yl)-1H-imidazol-4-yl)butane-1,2,3,4-tetraol (LX2932)” (J Med Chem, 2010).
Blank lines part the entries; values can stand above or below the compound they belong to. Activity calls are given as the source filed them. The calls are words filed in the database; no cut-off is given here.

What was measured:
[1] = (§1) AUC (0 to infinity) in 129/SvEvBrd X C57BL/6 F1 mouse at 10 mg/kg, po by LC/MS/MS analysis; format: ADME, organism-based, Plasma; parameters: time infinity, dose 10 mg/kg, route oral; settings: 129/SvEvBrd X C57BL/6 F1, mouse, plasma
[2] = system: Mus musculus; assay: Immunomodulatory activity in 129/SvEvBrd X C57BL/6 F1 mouse assessed as decrease in peripheral blood lymphocyte count at 30 mg/kg, po measured after 18 hrs by complete blood count analysis relative to control; format: ADME, organism-based; parameters: dose 30 mg/kg, route oral; scale not given: the % may be the effect or the level left; settings: in vivo
[3] = system: Rattus norvegicus; assay: Immunomodulatory activity in Sprague-Dawley rat kidney assessed as reduction in peripheral blood lymphocyte level at 30 mg/kg, po administered daily for 3 days measured after 18 hrs by CBC analysis; format: functional, organism-based; parameters: dose 30 mg/kg
[4] = system: Mus musculus; assay: Antiarthritic activity in […] collagen-induced arthritic mouse assessed as increase in CD4-positive cells in thymus at 100 mg/kg, po qd administered one day before collagen challenge; format: functional, organism-based; parameters: dose 100 mg/kg
[5] = system: Mus musculus; assay: Antiarthritic activity in […] collagen-induced arthritic mouse assessed as decrease in joint swelling at 100 mg/kg, po administered qd one started one day before collagen challenge; format: functional, organism-based; parameters: dose 100 mg/kg
[6] = system: Mus musculus; assay: Immunomodulatory activity in mouse assessed as induction of lymphopenia at 5 to 10 mg/kg, po administered as single dose measured after 18 hrs; format: functional, organism-based
[7] = system: Mus musculus; assay: Antiarthritic activity in […] collagen-induced arthritic mouse assessed as decrease in erosion at 100 mg/kg, po administered qd one started one day before collagen challenge; format: functional, organism-based; parameters: dose 100 mg/kg
[8] = system: Mus musculus; assay: Antiarthritic activity in […] collagen-induced arthritic mouse assessed as decrease in exudate formation at 100 mg/kg, po administered qd one started one day before collagen challenge; format: functional, organism-based; parameters: dose 100 mg/kg
[9] = system: Mus musculus; assay: Antiarthritic activity in […] collagen-induced arthritis in mouse assessed as decrease in joint swelling at 5 mg/kg, po administered qd on day 20 after collagen challenge by ELISA; format: functional, organism-based; parameters: dose 5 mg/kg
[10] = system: Mus musculus; assay: Antiarthritic activity in […] collagen-induced arthritis in mouse assessed as decrease in clinical scores at 30 mg/kg, po administered qd on day 20 after collagen challenge by ELISA; format: functional, organism-based; parameters: dose 30 mg/kg
[11] = system: Mus musculus; assay: Antiarthritic activity in […] collagen-induced arthritis in mouse assessed as decrease in joint swelling at 30 mg/kg, po administered qd on day 20 after collagen challenge by ELISA; format: functional, organism-based; parameters: dose 30 mg/kg
[12] = system: Rattus norvegicus; assay: Immunomodulatory activity in Sprague-Dawley rat liver assessed as reduction in peripheral blood lymphocyte level at 30 mg/kg, po administered daily for 3 days measured after 18 hrs by CBC analysis; format: functional, organism-based; parameters: dose 30 mg/kg
[13] = system: Mus musculus; assay: Antiarthritic activity in […] collagen-induced arthritic mouse assessed as decrease in synovial hyperplasia at 100 mg/kg, po administered qd one started one day before collagen challenge; format: functional, organism-based; parameters: dose 100 mg/kg
[14] = system: Rattus norvegicus; assay: Immunomodulatory activity in Sprague-Dawley rat heart assessed as reduction in peripheral blood lymphocyte level at 30 mg/kg, po administered daily for 3 days measured after 18 hrs by CBC analysis; format: functional, organism-based; parameters: dose 30 mg/kg
[15] = system: Mus musculus; assay: Antiarthritic activity in […] collagen-induced arthritic mouse assessed as decrease in arthritic score at 100 mg/kg, po administered qd one started one day before collagen challenge; format: functional, organism-based; parameters: dose 100 mg/kg
[16] = system: Rattus norvegicus; assay: Immunomodulatory activity in Sprague-Dawley rat eye assessed as reduction in peripheral blood lymphocyte level at 30 mg/kg, po administered daily for 3 days measured after 18 hrs by CBC analysis; format: functional, organism-based; parameters: dose 30 mg/kg
[17] = system: Rattus norvegicus; assay: Immunomodulatory activity in Sprague-Dawley rat lymph node assessed as reduction in peripheral blood lymphocyte level at 30 mg/kg, po administered daily for 3 days measured after 18 hrs by CBC analysis; format: functional, organism-based; parameters: dose 30 mg/kg
[18] = system: Rattus norvegicus; assay: Immunomodulatory activity in Sprague-Dawley rat spleen assessed as reduction in peripheral blood lymphocyte level at 30 mg/kg, po administered daily for 3 days measured after 18 hrs by CBC analysis; format: functional, organism-based; parameters: dose 30 mg/kg
[19] = system: Rattus norvegicus; assay: Immunomodulatory activity in Sprague-Dawley rat jejunum assessed as reduction in peripheral blood lymphocyte level at 30 mg/kg, po administered daily for 3 days measured after 18 hrs by CBC analysis; format: functional, organism-based; parameters: dose 30 mg/kg
[20] = system: Rattus norvegicus; assay: Increase in S1P level in Sprague-Dawley rat eye at 30 mg/kg, po administered daily for 3 days measured after 18 hrs […]; format: functional, organism-based; parameters: dose 30 mg/kg
[21] = system: Rattus norvegicus; assay: Immunomodulatory activity in Sprague-Dawley rat thymus assessed as reduction in peripheral blood lymphocyte level at 30 mg/kg, po administered daily for 3 days measured after 18 hrs by CBC analysis; format: functional, organism-based; parameters: dose 30 mg/kg
[22] = system: Mus musculus; assay: Antiarthritic activity in […] collagen-induced arthritis in mouse assessed as decrease in clinical scores at 5 mg/kg, po administered qd on day 20 after collagen challenge by ELISA; format: functional, organism-based; parameters: dose 5 mg/kg
[23] = system: Mus musculus; assay: Effect on serum anti-CII antibody levels in type 2 collagen-induced arthritis in mouse at 30 mg/kg, po administered qd on day 20 after collagen challenge by ELISA; format: functional, organism-based; parameters: dose 30 mg/kg
[24] = system: Rattus norvegicus; assay: Immunomodulatory activity in Sprague-Dawley rat lung assessed as reduction in peripheral blood lymphocyte level at 30 mg/kg, po administered daily for 3 days measured after 18 hrs by CBC analysis; format: functional, organism-based; parameters: dose 30 mg/kg
[25] = system: Rattus norvegicus; assay: Increase in S1P level Sprague-Dawley rat heart at 30 mg/kg, po administered daily for 3 days measured after 18 hrs […]; format: functional, organism-based; parameters: dose 30 mg/kg
[26] = system: Mus musculus; assay: Antiarthritic activity in […] collagen-induced arthritic mouse assessed as decrease in inflammation at 100 mg/kg, po administered qd one started one day before collagen challenge; format: functional, organism-based; parameters: dose 100 mg/kg
[27] = system: Mus musculus; assay: Antiarthritic activity in […] collagen-induced arthritic mouse assessed as increase in CD8-positive cells in thymus at 100 mg/kg, po qd administered one day before collagen challenge; format: functional, organism-based; parameters: dose 100 mg/kg
[28] = system: Mus musculus; assay: Antiarthritic activity in […] collagen-induced arthritic mouse assessed as delay in onset of collagen-induced arthritis at 100 mg/kg, po administered qd one started one day before collagen challenge; format: functional, organism-based; parameters: dose 100 mg/kg
[29] = Tmax in 129/SvEvBrd X C57BL/6 F1 mouse at 10 mg/kg, po by LC/MS/MS analysis; format: ADME, organism-based; parameters: dose 10 mg/kg, route oral; settings: in vivo
[30] = system: Mus musculus; assay: as §1; format: ADME, organism-based, Plasma; parameters: time infinity, dose 10 mg/kg, route oral; settings: mouse, in vivo
[31] = Cmax in 129/SvEvBrd X C57BL/6 F1 mouse at 10 mg/kg, po by LC/MS/MS analysis; format: ADME, organism-based; parameters: dose 10 mg/kg, route oral; settings: in vivo
[32] = Half life in 129/SvEvBrd X C57BL/6 F1 mouse at 10 mg/kg, po by LC/MS/MS analysis; format: ADME, organism-based; parameters: dose 10 mg/kg, route oral; settings: in vivo
[33] = Volume of distribution at steady state in 129/SvEvBrd X C57BL/6 F1 mouse at 1 mg/kg, iv by LC/MS/MS analysis; format: ADME, organism-based; parameters: dose 1 mg/kg, route intravenous; settings: in vivo, read-out: Vdss
[34] = system: Mus musculus; assay: Bioavailability in 129/SvEvBrd X C57BL/6 F1 mouse determined from 1 mg/kg, iv and 10 mg/kg, po by LC/MS/MS analysis; format: ADME, organism-based; settings: mouse, in vivo

SMILES: Cl.OC[C@@H](O)[C@@H](O)[C@H](O)c1c[nH]c(C2=NOCC2)n1
AUC(0-inf) [1]: 8.3 µM·h | Activity [2]: -12%

SMILES: C/C(=N\O)c1ncc([C@@H](O)[C@H](O)[C@H](O)CO)[nH]1
Activity [3]: Active | Activity [4]: Active | Activity [5]: Active | Activity [6]: inactive | Activity [7]: Active | Activity [8]: Active | Activity [9]: Active | Activity [10]: Active | Activity [11]: Active | Activity [12]: Active | Activity [13]: Active | Activity [14]: Active | Activity [15]: Active | Activity [16]: Active | Activity [17]: Active | Activity [18]: Active | Activity [19]: Active | Activity [20]: inactive | Activity [21]: Active | Activity [22]: Active | Activity [23]: inactive | Activity [24]: Active | Activity [25]: inactive | Activity [26]: Active | Activity [27]: Active | Activity [28]: Active

SMILES: Cc1onc(-c2nc([C@@H](O)[C@H](O)[C@H](O)CO)c[nH]2)c1[N+](=O)[O-].Cl
AUC(0-inf) [1]: 8.2 µM·h | Activity [2]: -27%

SMILES: CC(=O)c1c(-c2nc([C@@H](O)[C@H](O)[C@H](O)CO)c[nH]2)noc1C.Cl
AUC(0-inf) [1]: 11.7 µM·h | Activity [2]: -6%

SMILES: Cl.OC[C@@H](O)[C@@H](O)[C@H](O)c1c[nH]c(-c2cc(-c3ccccc3)on2)n1
AUC(0-inf) [1]: 10.3 µM·h | Activity [2]: -2%

SMILES: CCc1conc1-c1nc([C@@H](O)[C@H](O)[C@H](O)CO)c[nH]1.Cl
AUC(0-inf) [1]: 26.9 µM·h | Activity [2]: -55%

SMILES: Cl.OC[C@@H](O)[C@@H](O)[C@H](O)c1c[nH]c(-c2ccon2)n1
Activity [9]: Active | Activity [10]: Active | Activity [11]: Active | Tmax [29]: 2.1 h | AUC [30]: 21 µM·h | Activity [22]: Active | Activity [23]: inactive | Cmax [31]: 6.2 µM | Activity [2]: -70% | half-life [32]: 2.9 h | Vd [33]: 0.54 L/kg | F [34]: 2.4%

SMILES: Cc1cc(-c2nc([C@@H](O)[C@H](O)[C@H](O)CO)c[nH]2)on1.Cl
AUC(0-inf) [1]: 5.3 µM·h | Activity [2]: -4%

SMILES: CC(=O)c1nc([C@@H](O)[C@H](O)[C@H](O)CO)c[nH]1.Cl
AUC(0-inf) [1]: 15 µM·h | Activity [2]: -25%

SMILES: Cl.OC[C@@H](O)[C@@H](O)[C@H](O)c1c[nH]c(-c2cc(C(F)(F)F)on2)n1
AUC(0-inf) [1]: 7.8 µM·h | Activity [2]: 2%

Now from value to compound:

AUC(0-inf) [1]: 9.6 µM·h | Activity [2]: -19%
SMILES: Cl.OC[C@@H](O)[C@@H](O)[C@H](O)c1c[nH]c(-c2cc(C3CC3)on2)n1

AUC(0-inf) [1]: 12.8 µM·h | Activity [2]: -30%
SMILES: CC(C)c1cc(-c2nc([C@@H](O)[C@H](O)[C@H](O)CO)c[nH]2)no1.Cl

AUC(0-inf) [1]: 6.1 µM·h | Activity [2]: -7%
SMILES: Cl.OCc1cc(-c2nc([C@@H](O)[C@H](O)[C@H](O)CO)c[nH]2)no1

AUC(0-inf) [1]: 5.9 µM·h | Activity [2]: -10%
SMILES: CN(C)Cc1cc(-c2nc([C@@H](O)[C@H](O)[C@H](O)CO)c[nH]2)no1.Cl

AUC(0-inf) [1]: 12.5 µM·h | Activity [2]: -39%
SMILES: Cc1cc(-c2nc([C@@H](O)[C@H](O)[C@H](O)CO)c[nH]2)no1.Cl

AUC(0-inf) [1]: 9.1 µM·h | Activity [2]: -26%
SMILES: CCOc1cc(-c2nc([C@@H](O)[C@H](O)[C@H](O)CO)c[nH]2)no1.Cl
